# Patent US20240366648A1, “NAD-AUGMENTATION THERAPY FOR PARKINSON'S DISEASE” (Vestlandets Innovasjonsselskap AS (VIS), priority 2021, published 2024)
# What was measured:
# cerebral metabolism = assay: FDG-PET metabolic brain network analysis (NRRP/PDRP), phase I trial; type: in vivo, human
# Protocol: PET-MRI imaging was performed with a 3T Siemens Biograph mMR scanner, software version VE11P-SPO3. Subjects were administered 200 MBq of 18F Fluorodeoxyglucose (FDG) before being positioned in the scanner. After 31P-MRS spectra had been acquired, an 8-channel Siemens mMR Head coil was used for further MR imaging, which was performed simultaneously with FDG PET. In all subjects, PET acquisition began 25 to 30 minutes after the injection of FDG and lasted 30 minutes. The resulting emission data were reconstructed using Siemens HD-PET algorithm with Siemens HiRes Brain MRAC, with voxel size of 2.3×2.3×5.0 mm^3. PET images were anonymized and archived as DICOM files with a matrix size of 344×344×127 and an isotropic voxel size of 2.09×2.09×2.03 mm^3.
# FDG-PET scans were transferred electronically to the Center for Neurosciences at The Feinstein Institutes for Medical Research (Manhasset, NY, USA) and analyzed using automated computing pipelines implemented in MATLAB 7.5 (MathWorks, Natick, MA) using in-house Scan Analysis and Visualization (ScAnVP) software (available at http://feinsteinneuroscience.orq). Images were first pre-processed using Statistical Parametric Mapping (SPM8) software (http://fil.ion.ucl.ac.uk/spm; Wellcome Centre for Human Neuroimaging, London, UK). Of the 30 participants, the baseline scan of one NR subject was excluded on technical grounds. In the remaining subjects, FDG-PET scans acquired at visit 1 and visit 2 were aligned to produce a mean image, which was spatially normalized in standard Montreal Neurological Institute (MNI) anatomic space along with the individual scans from each time point. The normalized images were then smoothed with a 10-mm Gaussian filter in three dimensions to enhance the signal to noise ratio.
# For the PET-analyses, the subjects in the NR group were classified based on their cerebral NAD-response, measured by 31P-MRS. Subjects showing increased cerebral NAD levels at visit 2 were termed “MRS-responders,” whereas subjects showing no increase in cerebral NAD were termed “MRS non-responders”.
# To identify an NR-related metabolic pattern (NRRP), we analyzed paired metabolic scan data from the 10 MRS responders in the NR group (ATP-beta; NAD-total; ATP-alpha; ATP-gamma; PCr (Phosphocreatine); MP (membrane phospholipids); GPC (glycerophosphocholine); GPE (glycerophosphoethanolamine); Pi (inorganic phosphate); Pc (phosphocholine); PE (phosphoethanolamine); Total NAD/PCr; Total NAD/ATP-alpha) using ordinal trends/canonical variates analysis (OrT/CVA), a supervised form of principal component analysis (PCA) (Habeck C, Krakauer J W, Ghez C, Sackeim H A, Eidelberg D, Stern Y et al. A new approach to spatial covariance modeling of functional brain imaging data: ordinal trend analysis. Neural computation 2005; 17: 1602-1645).
# This multivariate approach is designed to detect and quantify regional covariance patterns (i.e., metabolic networks) for which expression values (i.e., subject scores) increase or decrease with treatment in all or most of the subjects (Niethammer M, Tang C C, Vo A, Nguyen N, Spetsieris P, Dhawan V et al. Gene therapy reduces Parkinson's disease symptoms by reorganizing functional brain connectivity. Science translational medicine 2018; 10; Ko J H, Feigin A, Mattis P J, Tang C C, Ma Y, Dhawan V et al. Network modulation following sham surgery in Parkinson's disease. The Journal of clinical investigation 2014; 124: 3656-3666). […] Likewise, the reliability of the voxel loadings (i.e., region weights) on the resulting network topography was assessed using bootstrap resampling procedures (Mure H, Hirano S, Tang C C, Isaias I U, Antonini A, Ma Y et al. Parkinson's disease tremor—related metabolic network: characterization, progression, and treatment effects. Neuroimage 2011; 54: 1244-1253; Habeck C, Stern Y. Multivariate data analysis for neuroimaging data: overview and application to Alzheimer's disease. Cell biochemistry and biophysics 2010; 58: 53-67). […]
# [1] = test system: gene expression in muscle; assay: RNA-seq differential gene expression in muscle tissue; type: in vivo, human; details: NR vs placebo
# Protocol: For all subjects at both visits, total RNA was extracted from muscle biopsy tissue and PBMC homogenate using RNeasy plus mini kit (Qiagen) with on-column DNase treatment according to manufacturer's protocol. The final elution was made in 45 ul of dH2O. The concentration and integrity of the total RNA were estimated by Ribogreen assay (Thermo Fisher Scientific), and Fragment Analyzer (Advanced Analytical), respectively, and 10 ng of total RNA was used for downstream RNA-seq applications using the SMARTer Stranded Total RNA-Seq Kit v2-Pico Input Mammalian Kit (IlluminaTakara Bio USA, Inc., Mountian View, CA) as per manufacturer's recommended protocol. Library quantity was assessed by Picogreen Assay (Thermo Fisher Scientific), and the library quality was estimated by utilizing a DNA High Sense chip on a Caliper Gx (Perkin Elmer). Accurate quantification of the final libraries for sequencing applications was determined using the qPCR-based KAPA Biosystems Library Quantification kit (Kapa Biosystems, Inc.). Each library pooled equimolar prior to clustering. One hundred bp paired-end sequencing was performed on an Illumina NovaSeq S4 sequencer (Illumina, Inc.). Two subjects were discarded from the PBMC samples and two from the muscle samples due to either insufficient tissue quantity, participant drop out/lack of sample, or being outliers in expression. […] FASTQ files were assessed using […] version 0.11.9. Quantification at the transcript level was calculated using Salmon version 1.3.0 with fragment-level GC bias correction against the GENCODE version 35, with the whole genome as decoy sequence. Transcript-level quantification was collapsed onto gene-level using the tximport R package version 1.8.0. Genes in non-canonical chromosomes and scaffolds and transcripts encoded by the mitochondrial genome were filtered out, together with non-protein-coding genes. Low-expressed genes were likewise removed from downstream analyses (expression below 10 reads for 75% of the samples). PBMC and muscle datasets were analysed independently. For PBMC samples, cell type composition was assessed employing ABIS. Differential gene expression was performed using the DESeq2 R package version 1.22.2. The generalized linear model formula accounted for both interindividual variability between subjects and the normal course of the experiment (baseline for each subject and baseline for the time-course). Multiple hypothesis testing was performed with the default automatic filtering of DESeq2 followed by false discovery rate (FDR) calculation by the Benjamini-Hochberg procedure.
smiles,measurement,setting,value
"NC(=O)c1ccc[n+]([C@@H]2O[C@H](CO)[C@@H](O)[C@H]2O)c1 [NR, nicotinamide riboside]",NR-related metabolic pattern (NRRP) topography,"cerebral metabolism; 10 MRS responders, OrT/CVA, PC1","bilateral metabolic reductions in the caudate and putamen, extending into the adjacent globus pallidus, and in the thalamus"
same,"Zmax, reduced metabolic activity as part of the NRRP network","cerebral metabolism; Anterior Cingulate (left), BA 32, MNI −4,44,18",2.2
same,"Zmax, reduced metabolic activity as part of the NRRP network","cerebral metabolism; Anterior Cingulate (right), BA 24, MNI 4,8,48",2.3
same,"Zmax, reduced metabolic activity as part of the NRRP network","cerebral metabolism; Anterior Cingulate (right), BA 32, MNI 4,46,−8",2.6
same,"Zmax, reduced metabolic activity as part of the NRRP network","cerebral metabolism; Lentiform Nucleus (left), Putamen, MNI −20,10,−8",3.5
same,"Zmax, reduced metabolic activity as part of the NRRP network","cerebral metabolism; Lentiform Nucleus (left), Putamen, MNI −28,−2,−2",3.3
same,"Zmax, reduced metabolic activity as part of the NRRP network","cerebral metabolism; Lentiform Nucleus (right), Putamen, MNI 22,10,−8",3.9
same,subjects with increased NRRP expression,"cerebral metabolism; MRS responders, p=0.018 permutation test",8 of 10
same,"Zmax, reduced metabolic activity as part of the NRRP network","cerebral metabolism; Middle Frontal Gyrus (left), BA 8, MNI −26,30,42",1.9
same,ordinal trend in NRRP expression,"cerebral metabolism; NR group as a whole, p=0.027 permutation test",remained significant
same,"correlation (r) of changes in NRRP expression with changes in UPDRS motor ratings, after excluding one data point","cerebral metabolism; NR group, excluding greatest increase in UPDRS motor score, p=0.048",−0.556
same,correlation (r) of changes in NRRP expression with changes in UPDRS motor ratings,"cerebral metabolism; NR group, p=0.026",−0.59
same,correlation of PDRP changes with clinical outcome,"cerebral metabolism; NR group, p=0.73",no correlation
same,"Zmax, reduced metabolic activity as part of the NRRP network","cerebral metabolism; Posterior Cingulate (bilateral), BA 31, MNI 0,−30,36",3.5
same,"Zmax, reduced metabolic activity as part of the NRRP network","cerebral metabolism; Precuneus (left), BA 7, MNI −6,−72,40",2.6
same,"Zmax, reduced metabolic activity as part of the NRRP network","cerebral metabolism; Prefrontal Cortex (right), BA 9, MNI 44,16,30",3.0
same,"Zmax, reduced metabolic activity as part of the NRRP network","cerebral metabolism; Superior Frontal Gyrus (left), BA 9, MNI −32,44,28",2.5
same,"Zmax, reduced metabolic activity as part of the NRRP network","cerebral metabolism; Superior Frontal Gyrus (left), BA 10, MNI −28,56,6",2.5
same,"Zmax, reduced metabolic activity as part of the NRRP network","cerebral metabolism; Thalamus (left), Anterior, MNI −10,−22,4",2.5
same,"Zmax, reduced metabolic activity as part of the NRRP network","cerebral metabolism; Thalamus (right), Medial Dorsal, MNI 8,−18,4",3.0
same,KLF2 expression in muscle,[1],substantial upregulation
same,"expression of PARP15, AMT, FARS2, TMEM242 in muscle",[1],upregulation
same,"gene set enrichment in muscle: proteasomal function, RNA transport and stability",[1],upregulation
same,number of differentially expressed genes in muscle tissue,"[1]; between visit differences, FDR<0.05",58 genes
